For data set [1], the system named is Poly I:C-induced ICAM-1 expression in BEAS2B cells. The data set is described as follows: Poly I:C-induced ICAM-1 expression in BEAS2B cells. Type of data set: cell-based. The conditions noted are these: Homo sapiens, BEAS-2B, read-out: Poly IC induced ICAM1 in BEAS2B IC50. An outline of the steps: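 BEAS2B human bronchial epithelial cells pre-incubated with compound for 2 hr, then transfected with 1 μg/mL poly I:C plus Oligofectamine. At 18 hr, surface ICAM-1 measured by cell-based ELISA (HRP, OD450–655). Signal corrected for cell number by crystal violet OD595.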

The subject of another data set is PBMC cells. The data set is described as follows: Cell mitosis assay. The data set is classed as cell-based, human. The method, then:
Peripheral blood mononucleocytes (PBMCs) from healthy subjects are separated from whole blood (Quintiles, London, UK) using a density gradient (Histopaque-1077, Sigma-Aldrich, Poole, UK). The PBMCs (3 million cells per sample) are subsequently treated with 2% PHA (Sigma-Aldrich, Poole, UK) for 48 hr, followed by a 20 hr exposure to varying concentrations of test compounds. At 2 hr before collection, PBMCs are treated with demecolcine (0.1 μg/mL) (Invitrogen, Paisley, UK,) to arrest cells in metaphase. To observe mitotic cells, PBMCs are permeabilised and fixed by adding Intraprep (50 μL) (Beckman Coulter, France), and stained with anti-phospho-histone 3 (0.26 ng/L) (#9701; Cell Signalling, Danvers, Mass.) and propidium iodide (1 mg/mL) (Sigma-Aldrich, Poole, UK,) as previously described (Muehlbauer P. A. and Schuler M. J., Mutation Research, 2003, 537:117-130). Fluorescence is observed using an ATTUNE flow cytometer (Invitrogen, Paisley, UK), gating for lymphocytes.

The next data set has as its target cSrc (Homo sapiens (Human), UniProt P12931). The data set is described as follows: c-Src enzyme inhibition (FRET, Z-LYTE). The data set is classed as biochemical. In a few lines:
(§1)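 Z-LYTE FRET kinase assay: enzyme (3000 or 2000 ng/mL stock, respectively) preincubated 2 h at RT with compound (4–0.004 μg/mL stocks), then FRET peptide plus ATP (800 μM stock for c-Src, 60 μM for Syk) added for 1 h. Protease development 1 h; phosphorylation from coumarin/fluorescein emission ratio.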

Another data set addresses p38 MAPKα (Homo sapiens (Human), UniProt Q16539). The data set is described as follows: p38 MAPKα enzyme inhibition (FRET, Z-LYTE). The data set is classed as biochemical.
Data set [2] relates to LPS-induced TNFα release in d-U937 cells. As to the kind of experiment: LPS-induced TNFα release in d-U937 cells. Type of data set: cell-based. The conditions noted are these: Homo sapiens, dU937, relative to 10 μg/mL BIRB796, read-out: LPS Induced Release of Cytokine in d-937 Cells TNFα REC50. An outline of the steps: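 Sandwich ELISA of culture supernatant gives TNFα and IL-8 levels after a 4 hr challenge with LPS (0.1 μg/mL, E. coli O111:B4). Before stimulation, macrophage-like U937 cells, obtained by 48–72 hr in PMA at 100 ng/mL, sit with compound for 2 hr. Relative EC50 is derived from concentration-response data.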

In a further data set the target is Syk (Homo sapiens (Human), UniProt P43405). The data set is described as follows: Syk enzyme inhibition (FRET, Z-LYTE). Type of data set: biochemical. In a few lines:
as §1

The next data set relates to d-U937 cells. The data set is described as follows: Cell viability: MTT assay. Particulars: 1 μg/mL. The data set is classed as cell-based, human. An outline of the steps: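 Differentiated U937 cells were exposed to compound at 1 or 10 μg/mL either 4 h in 5% FCS RPMI1640 or 24 h in 10% FCS RPMI1640, then given MTT for 1 h, DMSO-solubilised and read at 550 nm. Percent viability loss versus 0.5% DMSO vehicle; apparent gains appear negative.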
Background: Tetrazolium dyes change colour on reduction, which living cells bring about.

The test system of data set [3] is LPS-induced IL-8 release in d-U937 cells. The data set is described as follows: LPS-induced IL-8 release in d-U937 cells. The data set is classed as cell-based. Particulars: Homo sapiens, dU937, read-out: LPS Induced Release of Cytokine in d-937 Cells IL-8 IC50. An outline of the steps:
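First, U937 monocytes undergo PMA treatment (100 ng/mL) for 48 to 72 hr to become macrophage-type. Next, compound at final concentrations is added for 2 hr, followed by LPS at 0.1 μg/mL for 4 hr. Finally, cytokines in the supernatant are quantified by ELISA against vehicle-treated cells.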

In a further data set the target is GSK3α (Homo sapiens (Human), UniProt P49840). As to the kind of experiment: GSK 3α enzyme inhibition (FRET, Z-LYTE). Type of data set: biochemical. An outline of the steps: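 GSK3α (500 ng/mL stock) was preincubated 2 hr at RT with compound (4 to 0.004 μg/mL stocks), then FRET peptide (8 μM stock) and ATP (40 μM stock) added for 1 hr. Protease development for 1 hr cleaved unphosphorylated peptide; coumarin/fluorescein emission ratio reported phosphorylation.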
Chain of GSK3α (P49840 whole entry): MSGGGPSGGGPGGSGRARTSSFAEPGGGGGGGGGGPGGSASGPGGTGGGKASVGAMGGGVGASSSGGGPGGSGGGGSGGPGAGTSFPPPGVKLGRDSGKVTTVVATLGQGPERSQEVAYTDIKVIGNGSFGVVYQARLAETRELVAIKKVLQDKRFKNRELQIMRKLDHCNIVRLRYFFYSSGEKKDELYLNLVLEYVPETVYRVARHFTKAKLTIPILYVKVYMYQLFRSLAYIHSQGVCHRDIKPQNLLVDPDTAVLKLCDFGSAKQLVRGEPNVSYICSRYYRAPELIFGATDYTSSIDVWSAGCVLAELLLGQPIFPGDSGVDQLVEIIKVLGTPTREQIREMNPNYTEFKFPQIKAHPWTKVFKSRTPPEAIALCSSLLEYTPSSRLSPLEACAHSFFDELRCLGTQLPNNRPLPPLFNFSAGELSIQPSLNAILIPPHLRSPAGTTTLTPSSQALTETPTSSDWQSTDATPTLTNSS

The subject of the next data set is HRV16. As to the kind of experiment: HRV16 induced CPE in MRC5 cells. Type of data set: cell-based, human rhinovirus. Particulars: for HRV induced CPE in MRC5 Cells % Inhibition Observed: screened at concentrations up to 0.32 ng/mL. The method, then:
The supernatants are aspirated, and then fresh media added followed by incubation for 4 days. Where appropriate, cells are pre-incubated with compound or DMSO for 2 hr, and the compounds and DMSO added again after washout of the virus.
Supernatants are aspirated and incubated with methylene blue solution (100 μL, 2% formaldehyde, 10% methanol and 0.175% Methylene Blue) for 2 hr at RT. […] The percentage inhibition for each well is calculated. The IC50 value is calculated from the concentration-response curve generated by the serial dilutions of the test compounds.

This note sets out measurements from patent publication US9249125B2, “Pyrazole derivatives as p38 MAP inhibitors” (RESPIVERT LIMITED, priority 2012, dated 2016).

pEC50, pIC50: −log10 of the molar value.

Chain of p38 MAPKα (Q16539 whole entry): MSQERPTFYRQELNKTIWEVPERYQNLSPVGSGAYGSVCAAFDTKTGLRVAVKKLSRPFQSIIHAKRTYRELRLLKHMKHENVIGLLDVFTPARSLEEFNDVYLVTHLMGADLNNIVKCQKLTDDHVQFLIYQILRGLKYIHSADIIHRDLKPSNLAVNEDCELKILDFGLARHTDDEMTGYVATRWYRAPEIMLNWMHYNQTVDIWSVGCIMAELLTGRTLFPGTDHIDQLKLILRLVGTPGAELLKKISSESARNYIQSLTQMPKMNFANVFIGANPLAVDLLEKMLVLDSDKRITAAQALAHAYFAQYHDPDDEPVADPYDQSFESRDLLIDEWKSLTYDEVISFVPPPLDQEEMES
Chain of cSrc (P12931 whole entry, looked up): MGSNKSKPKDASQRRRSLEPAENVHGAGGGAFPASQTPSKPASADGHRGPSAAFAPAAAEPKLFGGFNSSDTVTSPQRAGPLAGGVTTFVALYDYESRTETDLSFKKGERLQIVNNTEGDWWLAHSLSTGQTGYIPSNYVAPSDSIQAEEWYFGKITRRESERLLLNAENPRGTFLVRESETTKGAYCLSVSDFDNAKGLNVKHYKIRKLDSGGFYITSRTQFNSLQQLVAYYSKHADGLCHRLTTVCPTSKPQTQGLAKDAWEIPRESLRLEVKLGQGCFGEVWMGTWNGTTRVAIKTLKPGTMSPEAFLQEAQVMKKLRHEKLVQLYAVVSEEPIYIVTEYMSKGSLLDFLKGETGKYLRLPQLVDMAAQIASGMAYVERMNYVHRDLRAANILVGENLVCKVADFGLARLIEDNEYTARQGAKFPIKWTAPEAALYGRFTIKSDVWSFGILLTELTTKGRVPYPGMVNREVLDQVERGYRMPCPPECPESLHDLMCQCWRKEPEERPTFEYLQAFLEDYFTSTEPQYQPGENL

Consider `COc1ccc(-n2nc(C(C)C)cc2NC(=O)Nc2ccc(Oc3ccnc(Nc4cc(C)c5[nH]ncc5c4)n3)c3ccccc23)cc1` [Example 9, 1-(3-Isopropyl-1-(4-methoxyphenyl)-1H-pyrazol-5-yl)-3-(4-((2-((7-methyl-1H-indazol-5-yl)amino)pyrimidin-4-yl)oxy)naphthalen-1-yl)urea], for which the pIC50 in data set [1] is 8.92; against cSrc it was 8.40; against p38 MAPKα, 7.42; against Syk it was 8.15; in data set [3], 8.41; at GSK3α it was below 4.81. Further, in the data set on PBMC cells, the “Mitosis Assay % inhibition in PBMC cells at 5 μg/mL” value came to 23.7%. Besides, the pEC50 in data set [2] was 8.80. In addition, the “MTT Assay Cell viability at time point in d-U937 cells 4 h” value in the data set on d-U937 cells is “−ve (−ve and +ve indicate that the value is below and above respectively, the no significant effect threshold, defined as 30% inhibition at 1 μg/mL at the time point indicated.)”. Further, the “MTT Assay Cell viability at time point in d-U937 cells 24 h” value with d-U937 cells was “−ve (−ve and +ve indicate that the value is below and above respectively, the no significant effect threshold, defined as 30% inhibition at 1 μg/mL at the time point indicated.)”.

Take `CC(C)(C)c1cc(NC(=O)Nc2ccc(Oc3ccnc(Nc4ccc5[nH]ncc5c4)n3)c3ccccc23)n(-c2cccc(OCCN3CCOCC3)c2)n1` [Example 54, 1-(4-((2-((1H-indazol-5-yl)amino)pyrimidin-4-yl)oxy)naphthalen-1-yl)-3-(3-(tert-butyl)-1-(3-(2-morpholinoethoxy)phenyl)-1H-pyrazol-5-yl)urea]: the negative logarithm of the IC50 (pIC50) in data set [1] is 7.99; with HRV16 (Human rhinovirus sp., HRV16, MRC5, read-out: HRV induced CPE in MRC5 Cells IC50) it was 9.40; against cSrc it was 8.15; against p38 MAPKα, 7.96; at Syk it was 8.05; in data set [3] it was 7.61. This compound also had a pIC50 on GSK3α of 5.70. Moreover, the pEC50 in data set [2] is 8.06. In the data set on d-U937 cells, the “MTT Assay Cell viability at time point in d-U937 cells 4 h” value was “−ve (−ve and +ve indicate that the value is below and above respectively, the no significant effect threshold, defined as 30% inhibition at 1 μg/mL at the time point indicated.)”. Besides, the “MTT Assay Cell viability at time point in d-U937 cells 24 h” value with d-U937 cells is “−ve (−ve and +ve indicate that the value is below and above respectively, the no significant effect threshold, defined as 30% inhibition at 1 μg/mL at the time point indicated.)”.

Take `CC(C)(C)c1cc(NC(=O)Nc2ccc(Oc3ccnc(Nc4ccc5[nH]ncc5c4)n3)c3ccccc23)n(-c2ccc(=O)n(CCN3CCOCC3)c2)n1` [Example 88, 1-(4-((2-((1H-indazol-5-yl)amino)pyrimidin-4-yl)oxy)naphthalen-1-yl)-3-(3-(tert-butyl)-1-(1-(2-morpholinoethyl)-6-oxo-1,6-dihydropyridin-3-yl)-1H-pyrazol-5-yl)urea]: the pIC50 in data set [1] is 7.44; on cSrc, 8.52; on p38 MAPKα, 7.49; against Syk, 8.00; in [3], 6.82; on GSK3α, 5.61. Further, in the data set on HRV16, the “HRV induced CPE in MRC5 Cells % Inhibition Observed” value amounted to 75%. Further, the pEC50 in data set [2] was 7.73. In the data set on d-U937 cells, the “MTT Assay Cell viability at time point in d-U937 cells 4 h” value is “−ve (−ve and +ve indicate that the value is below and above respectively, the no significant effect threshold, defined as 30% inhibition at 1 μg/mL at the time point indicated.)”. The “MTT Assay Cell viability at time point in d-U937 cells 24 h” value in the data set with d-U937 cells was “−ve (−ve and +ve indicate that the value is below and above respectively, the no significant effect threshold, defined as 30% inhibition at 1 μg/mL at the time point indicated.)”.

As to `Cc1ccc(-n2nc(C(C)(C)C)cc2NC(=O)Nc2ccc(Oc3ccnc(Nc4ccc5c(c4)NC(=O)C5)n3)c3ccccc23)cc1` [Example 2, 1-(3-(tert-Butyl)-1-(p-tolyl)-1H-pyrazol-5-yl)-3-(4-((2-((2-oxoindolin-6-yl)amino)pyrimidin-4-yl)oxy)naphthalen-1-yl)urea], the pIC50 in data set [1] is 8.85; on cSrc, 8.40; on p38 MAPKα, 7.03; against Syk, 7.74; in data set [3], 8.77; at GSK3α it was below 4.81. Moreover, the “HRV induced CPE in MRC5 Cells % Inhibition Observed” value with HRV16 turned out to be 89%. Also, the pEC50 in [2] is 8.85. Besides, in the data set on d-U937 cells, the “MTT Assay Cell viability at time point in d-U937 cells 4 h” value is “−ve (−ve and +ve indicate that the value is below and above respectively, the no significant effect threshold, defined as 30% inhibition at 1 μg/mL at the time point indicated.)”. In the data set with d-U937 cells, the “MTT Assay Cell viability at time point in d-U937 cells 24 h” value is “−ve (−ve and +ve indicate that the value is below and above respectively, the no significant effect threshold, defined as 30% inhibition at 1 μg/mL at the time point indicated.)”.

On to `CC(C)(C)c1cc(NC(=O)Nc2ccc(Oc3ccnc(Nc4ccc5[nH]ncc5c4)n3)c3ccccc23)n(-c2ccc(OCCN3CCOCC3)nc2)n1` [Example 15, 1-(4-((2-((1H-Indazol-5-yl)amino)pyrimidin-4-yl)oxy)naphthalen-1-yl)-3-(3-(tert-butyl)-1-(6-(2-morpholinoethoxy)pyridin-3-yl)-1H-pyrazol-5-yl)urea], for which the negative-log IC50 (pIC50) is 8.68 in [1]; above 9.00 at cSrc; 7.66 against p38 MAPKα; 8.15 against Syk; 8.80 in data set [3]; 5.85 at GSK3α. The “HRV induced CPE in MRC5 Cells % Inhibition Observed” value in the data set with HRV16 was 56%. The pEC50 in data set [2] was 8.80. In addition, the “MTT Assay Cell viability at time point in d-U937 cells 4 h” value in the data set on d-U937 cells is “−ve (−ve and +ve indicate that the value is below and above respectively, the no significant effect threshold, defined as 30% inhibition at 1 μg/mL at the time point indicated.)”. The “MTT Assay Cell viability at time point in d-U937 cells 24 h” value in the data set on d-U937 cells is “−ve (−ve and +ve indicate that the value is below and above respectively, the no significant effect threshold, defined as 30% inhibition at 1 μg/mL at the time point indicated.)”.

Turning to `Cc1ccc(-n2nc(C(C)(C)C)cc2NC(=O)Nc2ccc(Oc3ccnc(Nc4ccc5onc(N)c5c4)n3)c3ccccc23)cc1` [Example 5, 1-(4-((2-((3-Aminobenzo[d]isoxazol-5-yl)amino)pyrimidin-4-yl)oxy)naphthalen-1-yl)-3-(3-(tert-butyl)-1-(p-tolyl)-1H-pyrazol-5-yl)urea], the pIC50 in data set [1] was 9.22; against cSrc, below 5.81; at p38 MAPKα, 7.09; on Syk it was 7.31; in [3], 8.77; at GSK3α, below 5.81. Moreover, in the data set with HRV16, the “HRV induced CPE in MRC5 Cells % Inhibition Observed” value came to 100%. Moreover, the pEC50 in [2] was 8.96. In addition, in the data set on d-U937 cells, the “MTT Assay Cell viability at time point in d-U937 cells 4 h” value is “−ve (−ve and +ve indicate that the value is below and above respectively, the no significant effect threshold, defined as 30% inhibition at 1 μg/mL at the time point indicated.)”. Also, the “MTT Assay Cell viability at time point in d-U937 cells 24 h” value in the data set on d-U937 cells is “−ve (−ve and +ve indicate that the value is below and above respectively, the no significant effect threshold, defined as 30% inhibition at 1 μg/mL at the time point indicated.)”.

As usually defined, the pIC50 is −log10 of the IC50, conventionally taken in molar units.
